Source: patent US20130172407A1, “Inhibition of Cancer Cell Proliferation Using Oleoylethanolamide” (China Medical University, priority 2011, published 2013)

Assays:
Format in all cases: cell-based, Human
HT-29 cells [1] = test: MTT cell viability analysis, HT-29 cells; conditions: 24 hours, OEA 50, 100, 200 μM and lycopene 2, 5 μM compared to control group, synergy groups (200 μM OEA + 2 or 5 μM lycopene) compared to OEA group 3 and lycopene groups 1 and 2, FIG. 1
Description: (§1) HT-29 cells were cultured in a 75-cm^2 flask containing McCoy's medium (Invitrogen Inc., Carlsbad, Calif., USA) supplemented with 10% Fetal Bovine Serum (FBS), 2 mM glutamine and 1.5 g/L sodium bicarbonate. The remaining cells were cultured in a 75-cm^2 flask containing RPMI 1640 medium (Hyclone, Grand Island, N.Y., USA) supplemented with 10% Fetal Bovine Serum (FBS), 2 mM glutamine and 1.5 g/L sodium bicarbonate. These cells were cultured in an incubator with culture conditions set at 37° C. and 5% CO2. […]
(§2) • {3-[4,5-Dimethylthiazol-2-yl]-2,5-diphenyltetrazolium bromide} (MTT, 0.5 mg/mL, 200 μL) was added to the cell culture of each group, followed by incubation in an incubator (37° C., 5% CO2) for 2 hours. […] The absorbance at 570 nm (OD570) for each well was detected using a microplate reader (Tecan Inc., Mannedorf, Switzerland).
(§3) Cell viability percentage (%) was calculated by substituting the detected absorbance (OD570) to the following formula (1):
(§4) A=(B/C)×100 Formula (1): • wherein: • A=cell viability percentage (%) • B=the detected OD570 absorbance of each group • C=the detected OD570 absorbance of control group

HCT 116 cells = test: MTT cell viability analysis, HCT 116 cells; conditions: 24 hours, OEA 50, 100, 200 μM and lycopene 2, 5 μM compared to control group, synergy groups (200 μM OEA + 2 or 5 μM lycopene) compared to OEA group 3 and lycopene groups 1 and 2, FIG. 2
Description: as §1, §2, §3, §4

SW-480 cells = test: MTT cell viability analysis, SW-480 cells; conditions: 24 hours, OEA 50, 100, 200 μM and lycopene 2, 5 μM compared to control group, synergy groups (200 μM OEA + 2 or 5 μM lycopene) compared to OEA group 3 and lycopene groups 1 and 2, FIG. 3
Description: as §1, §2, §3, §4

A549 cells = test: MTT cell viability analysis, A549 cells; conditions: 24 hours, OEA 50, 100, 200 μM and lycopene 2, 5 μM compared to control group, synergy groups (200 μM OEA + 2 or 5 μM lycopene) compared to OEA group 3 and lycopene groups 1 and 2, FIG. 4
Description: as §1, §2, §3, §4

MDA-MB-231 cells = test: MTT cell viability analysis, MDA-MB-231 cells; conditions: 24 hours, OEA 50, 100, 200 μM and lycopene 2, 5 μM compared to control group, synergy groups (200 μM OEA + 2 or 5 μM lycopene) compared to OEA group 3 and lycopene groups 1 and 2, FIG. 5
Description: as §1, §2, §3, §4

Huh-7 cells = test: MTT cell viability analysis, Huh-7 cells; conditions: 24 hours, OEA 50, 100, 200 μM and lycopene 2, 5 μM compared to control group, synergy groups (200 μM OEA + 2 or 5 μM lycopene) compared to OEA group 3 and lycopene groups 1 and 2, FIG. 6
Description: as §1, §2, §3, §4

CAL 27 cells = test: MTT cell viability analysis, CAL 27 cells; conditions: 24 hours, OEA 50, 100, 200 μM and lycopene 2, 5 μM compared to control group, synergy groups (200 μM OEA + 2 or 5 μM lycopene) compared to OEA group 3 and lycopene groups 1 and 2, FIG. 7
Description: as §1, §2, §3, §4

AGS cells = test: MTT cell viability analysis, AGS cells; conditions: 24 hours, OEA 50, 100, 200 μM and lycopene 2, 5 μM compared to control group, synergy groups (200 μM OEA + 2 or 5 μM lycopene) compared to OEA group 3 and lycopene groups 1 and 2, FIG. 8
Description: as §1, §2, §3, §4

HT-29 cells [2] = test: Flow cytometry cell cycle analysis (PI staining, Sub-G1 phase); conditions: 24 hours, OEA 50, 100, 200 μM, lycopene 2, 5 μM, synergy groups (200 μM OEA + 2 or 5 μM lycopene) compared to OEA groups 1-3 and lycopene groups 1 and 2, FIG. 9
Description: In order to understand the effect of OEA and its combination with lycopene on the cell cycle and proliferation of human colorectal cancer cell line HT-29, HT-29 cell culture treated with different solutions obtained from Item B of Example 2 was used for the following experiments.
Each group of the HT-29 cell culture obtained from Item B of Example 2 was washed with PBS twice followed by fixing the cells with 70% (w/v) cold ethanol for 1 hour. Then, the obtained fixed cells were washed with cold PBS followed by centrifugation at 300 g for 5 minutes. […]
Subsequently, the obtained dyed cells were subjected to cell cycle analysis using BD FACSCanto™ flow cytometer (BD Biosciences, Cat. No. 338960), and the DNA content of 1×10^4 cells was analyzed in each analysis. The cells would emit fluorescence when excited by laser beam of argon ion at 488 nm. Cell cycle profile was analyzed from DNA content histograms using BD FACSDiVa™ software (Becton Dickinson, Cat. No. 643629). […] The percentage of the cells in Sub-G1 phase was analyzed using ModFit LT software.
The obtained experimental data was analyzed according to the method described in “Statistical Analysis” in the section of “General experimental procedure”.

cyclin D1 = test: Western Blotting analysis of nuclear protein, cyclin D1 expression in HT-29 cells; conditions: HT-29 nuclear protein; OEA 200 μM, lycopene 2 and 5 μM compared to control group; synergy groups compared to OEA group 3 and lycopene groups 1 and 2; FIG. 10
Description: (§5) In order to detect the protein expression of HT-29 cells, the HT-29 cell culture treated with different solutions for use in the instant experiment was obtained substantially according to “B. Treatment of various cancer cell lines with OEA solutions, lycopene solutions and combined solutions” in the above Example 2. The difference was that the cells of each group were cultured in a culture dish having a diameter of 10 cm. Experimental groups were added with different solutions according to those shown in Table 3 and the amount added was 10 mL.
(§6) Then, the HT-29 cell cultures of the control group, OEA group 3, lycopene groups 1 and 2 and synergy groups 1 and 2 were washed with PBS twice followed by adding 75 μL lysis buffer (containing PBS, 1% Ipegal CA-630 (Sigma, St. Louis, Mo.), 0.5% sodium deoxycholate, 0.1% SDS, 100 μM phenylmethylsulfonyl fluoride, 20 μg/mL aprotinin, 1 mM PMSF and 3 μM sodium orthovanadate) and uniformly mixing. The resultant cell mixtures were subjected to nuclear protein extraction using NE-PER® Nuclear and Cytoplasmic Extraction Reagents (Thermo Scientific, Cat. No. 78833) according to the manufacturer's operation guide, thereby obtaining nuclear protein samples. […]

p-NF-κB p65 = test: Western Blotting analysis of nuclear protein, p-NF-κB p65 expression in HT-29 cells; conditions: HT-29 nuclear protein; OEA 200 μM, lycopene 2 and 5 μM compared to control group; synergy groups compared to OEA group 3 and lycopene groups 1 and 2; FIG. 10
Description: as §5, §6

HT-29 cells [3] = test: FITC Annexin V / PI flow cytometry, cell death (apoptosis); conditions: FITC Annexin V and PI positive, OEA 200 μM and lycopene 5 μM compared to control group, synergy groups compared to OEA group 3 and lycopene group 2, FIG. 11
Description: In order to further investigate the usefulness of OEA and its combination with lycopene in inducing cell apoptosis of human colorectal cancer cell line HT-29, HT-29 cell cultures of control group, OEA group 3, lycopene groups 1 and 2 and synergy groups 1 and 2 obtained according to the above Item B in Example 2 were used for subsequent experiments.
First, the cell culture of each group was collected and washed with cold PBS twice followed by centrifugation at 300 g for 5 minutes. The supernatant was removed and 1× Annexin V Binding Buffer (BD Pharmingen™) was added to sufficiently re-suspend the cell pellet thereby obtaining a cell suspension having a cell concentration of 1×10^5 cells/mL. […]
Then, the stained cells were analyzed using BD FACSAria™ flow cytometry, wherein cells stained with FITC Annexin V and PI, i.e., FITC Annexin V positive and PI positive, represent cells that were induced with apoptosis and died, while cells that could not be stained with FITC Annexin V and PI, i.e., FITC Annexin V negative and PI negative, represent viable cells. The number of cells stained with FITC Annexin V and PI was calculated using BD FACSDiVa™ software.
The cell death percentage (%) of each group was calculated by substituting the detected cell number to the following formula (2): […]

SMILES | cell viability percentage (HT-29 cells [1]) | cell viability percentage (HCT 116 cells) | cell viability percentage (SW-480 cells) | cell viability percentage (A549 cells) | cell viability percentage (MDA-MB-231 cells) | cell viability percentage (Huh-7 cells) | cell viability percentage (CAL 27 cells) | cell viability percentage (AGS cells) | percentage of HT-29 cells in Sub-G1 phase (HT-29 cells [2]) | amount of cyclin D1 expression (cyclin D1) | amount of p-NF-κB p65 expression (p-NF-κB p65) | cell death percentage (HT-29 cells [3])
CCCCCCCC/C=C\CCCCCCCC(=O)NCCO [OEA, oleoylethanolamide] | reduced | reduced | reduced | reduced | reduced | reduced | reduced | reduced | promote HT-29 cells to be in Sub-G1 phase | reduced | reduced | elevated
CC(C)=CCC/C(C)=C/C=C/C(C)=C/C=C/C(C)=C/C=C/C=C(C)/C=C/C=C(C)/C=C/C=C(\C)CCC=C(C)C [lycopene] | reduced | reduced | reduced | reduced | reduced | reduced | reduced | reduced | promote HT-29 cells to be in Sub-G1 phase | reduced | reduced | elevated
